Article PMC4549706, “Rational Design of Highly Potent and Slow-Binding Cytochrome bc1 Inhibitor as Fungicide by Computational Substitution Optimization” (Scientific Reports, 2015)

Assays:
[1] = biological target: T1, porcine succinate-cytochrome c reductase (SCR, the mixture of complex II and bc1) (Sus scrofa, UniProt P24964); details: previous data, cited from earlier work
T1 construct: T h e S C R f r o m p o r c i n e h e a r t; from tissue; host or cells: porcine heart

S. fuliginea = assay: Field trial, summer squash naturally infected, powdery mildew; type: in vivo, Sphaerotheca fuliginea
Protocol: To further study the potential of compound 18 against powdery mildew and downy mildew, field experiments were conducted during the growing season of summer squash and cucumber. The summer squash plants at a fruiting stage naturally infected by S. fuliginea were used. […] Almost no lesions were observed on the leaves of summer squash. […] Lesions on the leaves of control plants, however, expanded quickly, and intense fungal hyphae could be observed. The curative effect is approximately 64.85% for the AZ-treated (93.75 g.ai/ha) summer squash. In addition, field trials for the treatment of downy mildew of cucumber were also performed. Cucumber plants naturally infected by P. cubensis were used for the study. Fungi on the leaves of control plants expanded quickly and lesions could be observed.
In the field trials, summer squash plants which is naturally infected by S. fuliginea and cucumber plants which is naturally infected by P. cubensis were used.
The disease index and control effect of compound 18 were calculated via the following […]
Disease index (%) = ∑(Ni × i)/(N × 9) × 100 […]
Each treatment took up in four plots and was distributed randomly in each […]eld. The relative control effects were assessed after the 7th day of foliar application 18. […]

T1 sequence (P24964 whole entry, one chain of several): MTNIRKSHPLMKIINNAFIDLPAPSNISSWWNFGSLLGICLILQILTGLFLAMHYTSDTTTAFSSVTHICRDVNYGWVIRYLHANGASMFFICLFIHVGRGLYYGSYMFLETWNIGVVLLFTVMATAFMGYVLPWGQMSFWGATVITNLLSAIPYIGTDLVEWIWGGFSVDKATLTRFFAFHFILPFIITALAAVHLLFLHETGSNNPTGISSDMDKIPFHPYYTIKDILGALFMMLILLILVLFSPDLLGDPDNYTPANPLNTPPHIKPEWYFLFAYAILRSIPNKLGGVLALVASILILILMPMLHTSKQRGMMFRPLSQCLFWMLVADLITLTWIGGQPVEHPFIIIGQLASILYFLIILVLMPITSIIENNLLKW

CO/C=C(/C(=O)OC)c1ccccc1Oc1cc(Oc2ccccc2C#N)ncn1 [AZ, Azoxystrobin, reference compound]
Ki ([1]; inhibition of SCR activity): 0.298 µM
inhibition type with respect to cytochrome c [1]: non-competitive

COC=C(C(=O)OC)c1ccccc1CSc1nc2cc(OC)ccc2s1 [Compound 18]
curative effect, powdery mildew (S. fuliginea) (S. fuliginea; 37.5 g.ai/ha, 7th day): approximately 70.92%
curative effect, powdery mildew (S. fuliginea) (S. fuliginea; 75 g.ai/ha, 7th day after foliar application): 74.60%
